As a reminder, the IC50 is the concentration at which inhibition is half-maximal.

Bounds are passed on as bounds.

Among the data in patent US10265307B2, “Thiazolecarboxamides and pyridinecarboxamide compounds useful as Pim kinase inhibitors” (Incyte Corporation, priority 2013, dated 2019) are IC50 values, retold here.

Common to all, as to assay type: biochemical
In assay [1] the target is Pim-1 (Homo sapiens (Human), UniProt P11309). Put plainly: Pim-1 kinase assay. The settings on record: 1 mM ATP; read-out: Pim1 IC50. Here is the method: Supplementation of the STOP buffer with beads and stopping the reactions were done under reduced light. Prior to the stopping reactions STOP buffer with beads was pre-incubated for 1 h in the dark at room temperature. After stopping the reactions, plates were incubated for 1 h in the dark at room temperature before reading on a PHERAstar FS plate reader (BMG Labtech) under reduced light.
Pim-1, sequence (P11309 whole entry): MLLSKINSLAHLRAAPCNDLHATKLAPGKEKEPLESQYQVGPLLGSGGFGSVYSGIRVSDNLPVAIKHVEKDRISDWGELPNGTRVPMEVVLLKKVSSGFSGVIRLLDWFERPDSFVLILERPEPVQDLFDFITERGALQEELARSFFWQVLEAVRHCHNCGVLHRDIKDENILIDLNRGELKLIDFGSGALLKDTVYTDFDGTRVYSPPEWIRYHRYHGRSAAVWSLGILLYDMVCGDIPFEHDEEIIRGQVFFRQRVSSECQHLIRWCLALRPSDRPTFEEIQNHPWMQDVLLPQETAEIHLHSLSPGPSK

The target in assay [2] is Pim-2 (Homo sapiens (Human), UniProt Q9P1W9). Nature of the assay: Pim-2 kinase assay. The note with it: 1 mM ATP; read-out: Pim2 IC50.
Pim-2, sequence (Q9P1W9 whole entry): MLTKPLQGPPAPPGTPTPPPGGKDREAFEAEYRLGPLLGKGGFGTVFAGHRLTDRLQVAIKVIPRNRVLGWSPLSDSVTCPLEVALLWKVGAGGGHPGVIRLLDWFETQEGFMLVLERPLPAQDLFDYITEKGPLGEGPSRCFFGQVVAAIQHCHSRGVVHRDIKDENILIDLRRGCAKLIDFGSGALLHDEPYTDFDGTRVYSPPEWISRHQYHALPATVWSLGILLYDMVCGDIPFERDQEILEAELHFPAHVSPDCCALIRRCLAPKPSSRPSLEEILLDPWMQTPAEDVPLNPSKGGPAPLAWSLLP
In assay [3] the target is Pim-3 (Homo sapiens (Human), UniProt Q86V86). Nature of the assay: Pim-3 kinase assay. The settings on record: 1 mM ATP; read-out: Pim3 IC50. A digest of the protocol: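 AlphaScreen-type assay: […] Pim-3 phosphorylates 0.05 μM biotin-BAD peptide with 1 mM ATP, 1 h at 25 °C, pH 7.5 Tris buffer with MgCl2 and DTT. EDTA stop with phospho-BAD (Ser112) antibody and donor/acceptor beads, 1 h dark incubation before reading.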

On to `Nc1sc(-c2c(F)cccc2F)nc1C(=O)Nc1cnc2c(c1N1CC[C@H](O)[C@@H](N)C1)CCC2` (single isomer, unassigned) [Example 24, 5-Amino-N-{4-[3,4-trans-3-amino-4-hydroxypiperidin-1-yl]-6,7-dihydro-5H-cyclopenta[b]pyridin-3-yl}-2-(2,6-difluorophenyl)-1,3-thiazole-4-carboxamide], for which the IC50 in assay [1] is at most 100 nM; in assay [2], above 2000 nM; in assay [3], at most 100 nM.
As to `Nc1sc(-c2c(F)cccc2F)nc1C(=O)Nc1cnc2c(c1N1CC[C@@H](O)[C@H](N)C1)CCC2` (single isomer, unassigned) [Example 25, 5-Amino-N-{4-[3,4-trans-3-amino-4-hydroxypiperidin-1-yl]-6,7-dihydro-5H-cyclopenta[b]pyridin-3-yl}-2-(2,6-difluorophenyl)-1,3-thiazole-4-carboxamide], the IC50 in assay [1], in assay [2] and in assay [3] was at most 100 nM throughout.
Turning to `Nc1sc(-c2c(F)cccc2F)nc1C(=O)Nc1cnc2c(c1N1CC[C@@H](O)[C@@H](N)C1)CCC2` (single isomer, unassigned) [Example 26], the concentration for half-maximal inhibition (IC50) is at most 100 nM in assay [1], above 2000 nM in assay [2] and at most 100 nM in assay [3].
Turning to `Nc1sc(-c2c(F)cccc2F)nc1C(=O)Nc1cnc2c(c1N1CC[C@H](O)[C@H](N)C1)CCC2` (single isomer, unassigned) [Example 27, 5-Amino-N-{4-[3.4-cis-3-amino-4-hydroxypiperidin-1-yl]-6,7-dihydro-5H-cyclopenta[b]pyridin-3-yl}-2-(2,6-difluorophenyl)-1,3-thiazole-4-carboxamide], the IC50 in assay [1], in assay [2] and in assay [3] was at most 100 nM throughout.
Regarding `Nc1sc(-c2c(F)cccc2F)nc1C(=O)Nc1cnc2ccsc2c1N1CC[C@@H](O)[C@H](N)C1` (single isomer, unassigned) [Example 29, 5-Amino-N-{7-[3,4-trans-3-amino-4-hydroxypiperidin-1-yl]thieno[3,2-b]pyridin-6-yl}-2-(2,6-difluorophenyl)-1,3-thiazole-4-carboxamide], the IC50 in assay [1] was at most 100 nM; in assay [2], 100 to 1000 nM; in assay [3], at most 100 nM.
Take `Nc1sc(-c2c(F)cccc2F)nc1C(=O)Nc1cnc2ccsc2c1N1CC[C@H](O)[C@H](N)C1` (single isomer, unassigned) [Example 30, 5-Amino-N-{7-[3.4-cis-3-amino-4-hydroxypiperidin-1-yl]thieno[3,2-b]pyridin-6-yl}-2-(2,6-difluorophenyl)-1,3-thiazole-4-carboxamide]: the figures for the IC50 in assay [1], in assay [2] and in assay [3] were at most 100 nM, 100 to 1000 nM and at most 100 nM, respectively.
`Nc1sc(-c2c(F)cccc2F)nc1C(=O)Nc1cnc2ccccc2c1N1CCC[C@H](N)C1` [Example 1, 5-Amino-N-{4-[(3S)-3-aminopiperidin-1-yl]quinolin-3-yl}-2-(2,6-difluorophenyl)-1,3-thiazole-4-carboxamide]: the results for the IC50 in assay [1], in assay [2] and in assay [3] were at most 100 nM, 277 nM and at most 100 nM, respectively.
Regarding `N[C@H]1CCCN(c2c(NC(=O)c3csc(-c4c(F)cccc4F)n3)cnc3ccccc23)C1` [Example 2, N-{4-[(3S)-3-Aminopiperidin-1-yl]quinolin-3-yl}-2-(2,6-difluorophenyl)-1,3-thiazole-4-carboxamide], the concentration for half-maximal inhibition (IC50) in assay [1] was above 40 nM; in assay [2], above 2000 nM; in assay [3] it was above 40 nM.
For `Nc1sc(-c2c(F)cccc2F)nc1C(=O)Nc1cnc2sccc2c1N1CCC[C@H](N)C1` [Example 3, 5-Amino-N-{4-[(3S)-3-aminopiperidin-1-yl]thieno[2,3-b]pyridin-5-yl}-2-(2,6-difluorophenyl)-1,3-thiazole-4-carboxamide], the IC50 in assay [1], in assay [2] and in assay [3] was at most 100 nM throughout.
In the case of `N[C@H]1CCCN(c2c(NC(=O)c3csc(-c4c(F)cccc4F)n3)cnc3sccc23)C1` [Example 4, N-{4-[(3S)-3-Aminopiperidin-1-yl]thieno[2,3-b]pyridin-5-yl}-2-(2,6-difluorophenyl)-1,3-thiazole-4-carboxamide], the values for the 50% inhibitory concentration (IC50) in assay [1], in assay [2] and in assay [3] were at most 100 nM, above 2000 nM and at most 100 nM, respectively.
With `Nc1sc(-c2c(F)cccc2F)nc1C(=O)Nc1cnc2ccsc2c1N1CCC[C@H](N)C1` [Example 5, 5-Amino-N-{7-[(3S)-3-aminopiperidin-1-yl]thieno[3,2-b]pyridin-6-yl}-2-(2,6-difluorophenyl)-1,3-thiazole-4-carboxamide], the IC50 in assay [1], in assay [2] and in assay [3] was at most 100 nM each time.
`N[C@H]1CCCN(c2c(NC(=O)c3csc(-c4c(F)cccc4F)n3)cnc3ccsc23)C1` [Example 6, N-{7-[(3S)-3-Aminopiperidin-1-yl]thieno[3,2-b]pyridin-6-yl}-2-(2,6-difluorophenyl)-1,3-thiazole-4-carboxamide]: the values for the 50% inhibitory concentration (IC50) in assay [1], in assay [2] and in assay [3] were at most 100 nM, above 2000 nM and at most 100 nM, respectively.
`Nc1sc(-c2c(F)cccc2F)nc1C(=O)Nc1cnc2[nH]ccc2c1N1CCC[C@H](N)C1` [Example 7, 5-Amino-N-{4-[(3S)-3-aminopiperidin-1-yl]-1H-pyrrolo[2,3-b]pyridin-5-yl}-2-(2,6-difluorophenyl)-1,3-thiazole-4-carboxamide]: the half-inhibitory concentration (IC50) in assay [1], in assay [2] and in assay [3] was at most 100 nM each time.
In the case of `N[C@H]1CCCN(c2c(NC(=O)c3csc(-c4c(F)cccc4F)n3)cnc3[nH]ccc23)C1` [Example 8, N-{4-[(3S)-3-Aminopiperidin-1-yl]-1H-pyrrolo[2,3-b]pyridin-5-yl}-2-(2,6-difluorophenyl)-1,3-thiazole-4-carboxamide], the concentration for half-maximal inhibition (IC50) in assay [1] is at most 100 nM; in assay [2], above 2000 nM; in assay [3], at most 100 nM.
In the case of `Nc1sc(-c2c(F)cccc2F)nc1C(=O)Nc1cnc2c(c1N1CCC[C@H](N)C1)CCO2` [Example 9, 5-Amino-N-{4-[(3S)-3-aminopiperidin-1-yl]-2,3-dihydrofuro[2,3-b]pyridin-5-yl}-2-(2,6-difluorophenyl)-1,3-thiazole-4-carboxamide], the 50% inhibitory concentration (IC50) in assay [1], in assay [2] and in assay [3] was at most 100 nM throughout.
Consider `N[C@H]1CCCN(c2c(NC(=O)c3csc(-c4c(F)cccc4F)n3)cnc3c2CCO3)C1` [Example 10, N-{4-[(3S)-3-Aminopiperidin-1-yl]-2,3-dihydrofuro[2,3-b]pyridin-5-yl}-2-(2,6-difluorophenyl)-1,3-thiazole-4-carboxamide], for which the IC50 was at most 100 nM in assay [1], 100 to 1000 nM in assay [2] and at most 100 nM in assay [3].
With `N[C@H]1CCCN(c2c(NC(=O)c3ccc(F)c(-c4c(F)cccc4F)n3)cnc3c2CCO3)C1` [Example 11, N-{4-[(3S)-3-Aminopiperidin-1-yl]-2,3-dihydrofuro[2,3-b]pyridin-5-yl}-6-(2,6-difluorophenyl)-5-fluoropyridine-2-carboxamide], the results for the IC50 in assay [1], in assay [2] and in assay [3] were at most 100 nM, 100 to 1000 nM and at most 100 nM, respectively.
As to `Nc1cc(F)c(-c2c(F)cccc2F)nc1C(=O)Nc1cnc2c(c1N1CCC[C@H](N)C1)CCO2` [Example 12, 3-Amino-N-{4-[(3S)-3-aminopiperidin-1-yl]-2,3-dihydrofuro[2,3-b]pyridin-5-yl}-6-(2,6-difluorophenyl)-5-fluoropyridine-2-carboxamide], the IC50 in assay [1], in assay [2] and in assay [3] was at most 100 nM in each case.
In the case of `N[C@H]1CCCN(c2c(NC(=O)c3csc(-c4c(F)cccc4F)n3)cnc3c2CCC3)C1` [Example 13, N-{4-[(3S)-3-Aminopiperidin-1-yl]-6,7-dihydro-5H-cyclopenta[b]pyridin-3-yl}-2-(2,6-difluorophenyl)-1,3-thiazole-4-carboxamide], the IC50 in assay [1] is at most 100 nM; in assay [2], above 2000 nM; in assay [3] it was at most 100 nM.
For `Nc1sc(-c2c(F)cccc2F)nc1C(=O)Nc1cnc2c(c1N1CCC[C@H](N)C1)CCC2` [Example 14, 5-Amino-N-{4-[(3S)-3-aminopiperidin-1-yl]-6,7-dihydro-5H-cyclopenta[b]pyridin-3-yl}-2-(2,6-difluorophenyl)-1,3-thiazole-4-carboxamide], the IC50 in assay [1], in assay [2] and in assay [3] was at most 100 nM in each case.
Take `COC1CCc2c1ncc(NC(=O)c1nc(-c3c(F)cccc3F)sc1N)c2N1CCC[C@H](N)C1` (stereo partly drawn) [Example 17, 5-Amino-N-{4-[(3S)-3-aminopiperidin-1-yl]-7-methoxy-6,7-dihydro-5H-cyclopenta[b]pyridin-3-yl}-2-(2,6-difluorophenyl)-1,3-thiazole-4-carboxamide]: the concentration for half-maximal inhibition (IC50) was at most 100 nM in assay [1], 100 to 1000 nM in assay [2] and at most 100 nM in assay [3].
In the case of `Nc1sc(-c2c(F)cccc2F)nc1C(=O)Nc1cnc2c(c1N1CCC[C@H](N)C1)CCC2=O` [Example 20, 5-Amino-N-{4-[(3S)-3-aminopiperidin-1-yl]-7-oxo-6,7-dihydro-5H-cyclopenta[b]pyridin-3-yl}-2-(2,6-difluorophenyl)-1,3-thiazole-4-carboxamide], the IC50 in assay [1], in assay [2] and in assay [3] was at most 100 nM throughout.
